Earlier results as cited in patent US6939400B2, “Ink, production method of the same materials for producing the same and printed matter with the same” (Teikoku Printing Mfg. Co., Ltd., priority 2002, dated 2005).

System: mouse

COC(C)(C)CCO [3-methyl-3-methoxy-1-butanol]
LD 50 value representing the mouse oral toxicity: 5,830 mg/kg
